From patent US20150374705A1, “Substances for treatment or relief of pain” (Shanghai Institues for Biological Sciences, priority 2012, published 2015)
Entries after “also recorded” stand apart in the source; their conditions may differ.

Legend:
[1] = molecular target: T1, Human recombinant α5-GABAA receptor (Homo sapiens, UniProt P18507+P31644); experiment: Electrophysiological inverse agonist efficacy on GABA-induced current; format: cell-based; details: change of GABA-induced current; negative = inhibition
T1 construct: expressed in transfected cells; host or cells: 293 cell line
Method: (§1) Different subunits of GABAA receptor were expressed in cell lines, including human kidney epithelial cell line, 293 cell line or L(tk−) cell line. The cells were cultured in medium, and such cells were used as the cellular model for screening drugs to suppress pain. a subunit, β subunit and γ subunit are indispensable for one complete functional GABAA receptor.
(§2) (a) simultaneously expressing α5 subunit (for the protein sequence, see GenBank accession number NM_001165037.1), β3 subunit (for the protein sequence, see GenBank accession number NM_021912.4) and γ2 subunit (for the protein sequence, see GenBank accession number NM_198904.2) in 293 cell line, forming the GABAA receptor containing α5 subunit;
(§3) The inventors used electrophysiological methods to measure the inverse agonist efficacy of the substances to be measured, see the method described in literature (Ballard T M et al., RO4938581, a novel cognitive enhancer acting at GABAA alpha5 subunit-containing receptors. Psychopharmacology (Berl). 2009 January; 202 (1-3): 207-23). […] Many methods can be used by those skilled in the art to evaluate the binding capacity of the ligand of α5-GABAA receptor to the α5-GABAA receptor, including but not limiting to the method above.
(§4) Inverse agonist efficacy represents the inhibition percentage of the candidate substance on the current induced by GABA through α5-GABAA receptor=(the current intensity induced by GABA through α5-GABAA receptor with the existence of candidate substance−the current intensity induced by GABA through α5-GABAA receptor without the existence of candidate substance)/the current intensity induced by GABA through α5-GABAA receptor without the existence of candidate substance.

[2] = molecular target: T2, Human recombinant GABAA receptor containing α3 subunit (Homo sapiens, UniProt P18507+P34903); experiment: as above; format: cell-based; details: change of GABA-induced current; negative = inhibition
T2 construct: expressed in transfected cells; host or cells: 293 cell line
Method: as §1
(§5) (d) simultaneously expressing α3 subunit (for the protein sequence, see GenBank accession number NM_000808.3), β3 subunit and γ2 subunit in 293 cell line, forming the GABAA receptor containing α3 subunit;
as §3, §4

[3] = molecular target: T3, Human recombinant GABAA receptor containing α1 subunit (α1, β3, γ2) (Homo sapiens, UniProt P14867+P18507); experiment: Competitive radioligand binding ([3H]Ro-0151788) on membranes of 293 cells, Ki; details: human recombinant GABAA subtype containing α1; read-out: Affinity, nM (α1)
T3 construct: expressed in transfected cells; host or cells: 293 cell line
Method: as §1
(§6) In this example, the inventors established the following cellular models:
(§7) (b) simultaneously expressing α1 subunit (GenBank accession number: NM_001127648.1), β3 subunit and γ2 subunit in 293 cell line, forming the GABAA receptor containing α1 subunit; • (c) simultaneously expressing α2 subunit (for the protein sequence, see GenBank accession number NM_000813.2), β3 subunit and γ2 subunit in 293 cell line, forming the GABAA receptor containing α2 subunit;
(§8) Each of the (a) to (d) above could form a GABAA receptor with complete function.
(§9) Then, the cellular membrane was extracted and the protein concentration was measured. The competitive binding of the substances to be measured and radiolabelled compounds (e.g. 1 nM [^3H]Ro-0151788) were detected respectively to calculate the Ki value of the substances to be measured, see the method described in literature (Ballard T M et al., RO4938581, a novel cognitive enhancer acting at GABAA alpha5 subunit-containing receptors. Psychopharmacology (Berl). 2009 January; 202(1-3): 207-23). If the binding inhibition constant Ki (nM) of α5-GABAA receptor with the candidate substances in experimental group is less than the Ki of the receptor containing other a subunit (α1 subunit, α2 subunit or α3 subunit), then the candidate substance is a potential drugs for preventing, relieving or treating pain. Many methods can be used by those skilled in the art to evaluate the binding capacity of the ligand of α5-GABAA receptor to the α5-GABAA receptor, including but not limiting to the method above.

[4] = tested on: CFA induced inflammatory pain model rats (mechanical pain); experiment: CFA induced inflammatory pain model, mechanical pain threshold; format: in vivo; details: rat
[5] = tested on: CFA induced inflammatory pain model rats (heat pain); experiment: CFA induced inflammatory pain model, heat pain threshold; format: in vivo; details: rat
[6] = tested on: Human recombinant GABAA receptor containing α2 subunit; experiment: Electrophysiological inverse agonist efficacy on GABA-induced current; format: cell-based; details: change of GABA-induced current; negative = inhibition
Method: as §1, §7, §3, §4

[7] = molecular target: T4, Human recombinant GABAA receptor containing α1 subunit (Homo sapiens, UniProt P14867+P18507); experiment: as above; format: cell-based; details: change of GABA-induced current; negative = inhibition
T4 construct: expressed in transfected cells; host or cells: 293 cell line
Method: as §1, §7, §3, §4

[8] = molecular target: T5, Human recombinant GABAA receptor containing α3 subunit (α3, β3, γ2) (Homo sapiens, UniProt P18507+P34903); experiment: Competitive radioligand binding ([3H]Ro-0151788) on membranes of 293 cells, Ki; details: human recombinant GABAA subtype containing α3; read-out: Affinity, nM (α3)
T5 construct: expressed in transfected cells; host or cells: 293 cell line
Method: as §1, §6, §5, §8, §9

[9] = molecular target: T6, Human recombinant GABAA receptor containing α5 subunit (α5, β3, γ2) (Homo sapiens, UniProt P18507+P31644); experiment: as above; details: human recombinant GABAA subtype containing α5; read-out: Affinity, nM (α5)
T6 construct: expressed in transfected cells; host or cells: 293 cell line
Method: as §1, §6, §2, §8, §9

Row | Structure (SMILES) | Inverse agonist efficacy, % (α5) [1] [%] | Inverse agonist efficacy, % (α3) [2] [%] | Ki [3] [nM] | Suppression of mechanical pain ([4]; oral administration, 7 days after CFA model, 1 hour after administration) | Suppression of heat pain ([5]; oral administration, 3 days after CFA model, 1 hour after administration) | Inverse agonist efficacy, % (α2) [6] [%] | Inverse agonist efficacy, % (α1) [7] [%] | Ki [8] [nM] | Ki [9] [nM] | Suppression of mechanical pain ([4]; 3 mg/kg intraperitoneal, 7 days after CFA, 0.5-24 hours after administration, listed as A5I, 3 mg/kg) | Suppression of heat pain ([5]; 3 mg/kg intraperitoneal, 3 days after CFA, 0.5-3.0 hours after administration, listed as A5I, 3 mg/kg)
1 | Cn1ncnc1COc1nn2c(-c3cc(CO)on3)nncc2c1C(C)(C)C [MRK016-M3, (3-(3-tert-butyl-2-((2-methyl-2H-1,2,4-triazol-3-yl)methoxy)pyrazolo [1,5-d][1,2,4]triazin-7-yl)isoxazol-5-yl)methanol] | −52 | −15 | 1.5 | significantly suppress inflammatory pain; also recorded: significantly suppressed pain | significantly suppress inflammatory pain; also recorded: significantly suppressed pain | −1 | −11 | 0.69 | 1.1 |  | 
2 | Cc1cc(-c2nnc3c4ccccc4c(OCC4=CC(C)C=N4)nn23)no1 (stereo not drawn) [α5IA] | −29 | 4 | 0.88 |  |  | 12 | −4 | 0.61 | 0.66 | efficiently treat mechanical pain; also recorded: efficiently inhibit inflammatory pain | efficiently inhibit inflammatory pain; also recorded: efficiently treat heat pain
